Reference: ChEMBL document CHEMBL1155934, “Novel quinolinonyl diketo acid derivatives as HIV-1 integrase inhibitors: design, synthesis, and biological activities” (J Med Chem, 2008)
Calls of active or inactive are those of the source. No cut-off for these calls is given here.

Assays:
U-937 = experiment: Cytotoxicity against human U937 cells after 24 hrs by MTT assay; settings: u-937, 24 h
[1] = molecular target: T1, Human immunodeficiency virus type 1 integrase (Human immunodeficiency virus 1, UniProt Q7ZJM1)
T1 sequence (Q7ZJM1 whole entry): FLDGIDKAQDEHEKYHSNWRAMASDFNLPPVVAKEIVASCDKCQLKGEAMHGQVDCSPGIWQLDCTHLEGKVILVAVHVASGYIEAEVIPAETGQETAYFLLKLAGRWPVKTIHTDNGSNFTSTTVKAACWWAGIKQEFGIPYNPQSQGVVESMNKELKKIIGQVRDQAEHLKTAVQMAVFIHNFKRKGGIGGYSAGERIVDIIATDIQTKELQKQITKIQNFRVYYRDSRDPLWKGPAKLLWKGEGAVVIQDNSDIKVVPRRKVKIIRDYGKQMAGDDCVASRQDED
Description: Inhibition of recombinant HIV1 integrase strand transfer activity by high throughput electrochemiluminescent assay in presence of magnesium

[2] = molecular target: T1, Human immunodeficiency virus type 1 integrase; experiment: Inhibition of recombinant HIV1 integrase 3'-end processing activity by gel-based assay in presence of magnesium
[3] = molecular target: T1, Human immunodeficiency virus type 1 integrase; experiment: Inhibition of recombinant HIV1 integrase strand transfer activity by gel-based assay in presence of magnesium
[4] = molecular target: Human immunodeficiency virus type 1 integrase (Human immunodeficiency virus 1) (UniProt Q7ZJM1); experiment: Inhibition of HIV1 recombinant integrase in presence of manganese
Human immunodeficiency virus type 1 integrase (Human immunodeficiency virus 1), sequence (Q7ZJM1 as listed by the source): as the sequence (Q7ZJM1 whole entry) above

[5] = tested on: Human immunodeficiency virus 1; experiment: Antiviral activity against HIV1-infected in human H9/HTLV 3B cells after 4 days; type: functional, organism-based; settings: Human immunodeficiency virus 1, 96 h

| Structure (SMILES) | CC50 (U-937) [µM] | IC50 [1] [µM] | IC50 [2] [µM] | IC50 [3] [µM] | Activity [4] | EC50 [5] [µM] |
| --- | --- | --- | --- | --- | --- | --- |
| O=C(O)/C(O)=C/C(=O)c1cn(Cc2ccc(F)cc2)c2cc(F)ccc2c1=O | > 200 | 0.02 | 4.4 | 0.05 | Active | – |
| CCOC(=O)/C(O)=C/C(=O)c1cn(Cc2ccc(F)cc2)c2c(Cl)cccc2c1=O | > 200 | 32 | > 333 | 5.2 | Active | – |
| O=C(O)/C(O)=C/C(=O)c1cn(Cc2ccc(F)cc2)c2ccc(Cl)cc2c1=O | > 200 | 0.028 | 6.4 | 0.4 | Active | – |
| O=C(O)/C(O)=C/C(=O)c1cn(Cc2ccc(F)cc2)c2c(F)cccc2c1=O | > 200 | 0.018 | 16 | 0.16 | Active | – |
| CCOC(=O)/C(O)=C/C(=O)c1c[nH]c2cc(Cl)ccc2c1=O | – | > 111 | > 333 | 224 | – | – |
| O=C(O)/C(O)=C/C(=O)c1cn(Cc2ccc(F)cc2)c2c(Cl)cccc2c1=O | > 200 | – | 44 | 0.51 | Active | – |
| O=C(O)/C(O)=C/C(=O)c1cn(Cc2ccc(F)cc2)c2cc(Cl)ccc2c1=O | > 200 | 0.019 | 4 | 0.11 | Active | – |
| O=C(O)C(=O)CC(=O)c1cccn1Cc1ccc(F)cc1 | – | – | – | – | – | 1 |
| O=C(O)/C(O)=C/C(=O)c1cn(Cc2ccc(F)cc2)c2ccccc2c1=O | > 200 | 0.04 | 14 | 0.06 | Active | – |
| CCOC(=O)/C(O)=C/C(=O)c1c[nH]c2ccc(Cl)cc2c1=O | – | 3.3 | 120 | 2.1 | – | – |
| O=C(O)/C(O)=C/C(=O)c1ccc2c(c1)c(=O)c(C(=O)/C=C(\O)C(=O)O)cn2Cc1ccc(F)cc1 | > 200 | – | – | – | – | – |
| CCOC(=O)/C(O)=C/C(=O)c1cn(Cc2ccc(F)cc2)c2ccccc2c1=O | 99 | 0.67 | 135 | 0.44 | Active | – |
| CCOC(=O)/C(O)=C/C(=O)c1cn(Cc2ccc(F)cc2)c2ccc(Cl)cc2c1=O | – | 21 | > 333 | 3 | Active | – |
| CCOC(=O)/C(O)=C/C(=O)c1cn(Cc2ccc(F)cc2)c2cc(Cl)ccc2c1=O | – | 14 | > 333 | 3.6 | Active | – |
| CCOC(=O)/C(O)=C/C(=O)c1cn(Cc2ccc(F)cc2)c2cc(N3CCCC3)ccc2c1=O | > 200 | 2.3 | 110 | 2.7 | Active | – |
| O=C(O)/C(O)=C/C(=O)c1cn(Cc2ccc(F)cc2)c2cc(N3CCCC3)ccc2c1=O | > 200 | 0.028 | 14 | 0.18 | Active | – |
| O=C(O)/C(O)=C/C(=O)c1cn(Cc2ccc(F)cc2)c2ccc(F)cc2c1=O | > 200 | – | 2.3 | – | Active | – |
| O=C(O)/C(O)=C/C(=O)c1cn(Cc2ccc(F)cc2)c2cc(Cl)c(Cl)cc2c1=O | 156 | 0.033 | 11 | 0.075 | Active | – |
| CCOC(=O)/C(O)=C/C(=O)c1cn(Cc2ccc(F)cc2)c2cc(F)ccc2c1=O | > 200 | 1.3 | > 333 | 1.2 | Active | – |
| CCOC(=O)/C(O)=C/C(=O)c1cn(Cc2ccc(F)cc2)c2c(F)cccc2c1=O | > 200 | 26 | > 333 | 5.2 | Active | – |
| CCOC(=O)/C(O)=C/C(=O)c1cn(Cc2ccc(F)cc2)c2ccc(F)cc2c1=O | > 200 | 0.58 | > 333 | 0.23 | Active | – |
| CCOC(=O)/C(O)=C/C(=O)c1cn(Cc2ccc(F)cc2)c2cc(Cl)c(Cl)cc2c1=O | 72 | 3.9 | 135 | 1.8 | Active | – |
| O=C(O)/C(O)=C/C(=O)c1c[nH]c2cc(Cl)ccc2c1=O | – | 37 | > 333 | 17 | – | – |
| O=C(O)/C(O)=C/C(=O)c1c[nH]c2ccc(Cl)cc2c1=O | – | > 111 | 166 | 56 | – | – |
